Experimental findings from PubChem BioAssay AID1259418 (Broad Institute, 2018) are described below.

The assay deals with T. gondii ME49Luc in IFN-y HeLa, luciferase, 72 h. The assay can be described thus: T. gondii growth inhibition with IFN-gamma, dose response, cell-based, ME49Luc, HeLa, luciferase, 72 h (AID 1259418).

The AC50 is the concentration at which the activity in the assay is half-maximal.

Values joined by “and” are separate entries in the source; they are usually repeats but may differ in a detail not shown here. Equal values may be shown once. Records with an inconclusive call do not appear. Active and inactive are the calls of the source.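 How the source made its calls: active means fitted half-maximal concentration of signal decrease at or below twice the sample's top tested concentration; inconclusive means flat curve between -70 and -30 percent, or poor fit; inactive means flat within 30 percent, signal rise, or potency above limit.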

Consider `CC(C)n1c(C(=O)Nc2cccc(F)c2)nc2c1CCN(Cc1ccccc1)C2`, for which the AC50 was 9.4 µM.
In the case of `N#Cc1ccc(-c2ccc(C3[C@@H]4CN(C(=O)C5CCCCC5)C[C@H]3N4)cc2)cc1` (stereo partly drawn), the AC50 was 17.8 µM and 28.4 µM and 27.6 µM.
The figure for `Cc1ccc(S(=O)(=O)N2CCC3(CC2)NCCN=C3NCc2ccc(F)c(Cl)c2)cc1C` is 16.5 µM; for `CCN1CCN(CCCNc2nc(-c3ccc(Cl)cc3)nc3ccccc23)CC1` it is > 20 µM (inactive); for `COc1cccc(S(=O)(=O)N2CCCCN3[C@H](CO)[C@H](c4ccc(-c5ccccc5)cc4)[C@H]3C2)c1` it is 5.11 µM.
Consider `CCc1ccccc1S(=O)(=O)N1CCc2nc(-c3ccc(OC)cc3)sc2C1`, for which the concentration at half-maximal activity (AC50) was 7.8 µM and 14.9 µM.
As to `CCOc1ccccc1C(=O)N1CCC2(CC1)Nc1ccc(Cl)cc1-n1cccc12`, the AC50 was 24.3 µM.
Consider `COc1cccc(C#Cc2ccc([C@@H]3[C@@H](C#N)N[C@@H]3CO)cc2)c1`, for which the AC50 was 38.4 µM.
`COc1ccccc1C(=O)Nc1ccc(-c2nc(-c3cc(C)ccc3C)co2)cc1`: the AC50 is 5.13 µM.
Take `COc1ccc(NC(=O)CN2CCC3(CC2)N=C(c2cccc(C)c2)C(=O)N3)c(OC)c1`: the AC50 was 29.4 µM.
For the molecule `Cc1cccc(CNC2=NCCNC23CCN(S(=O)(=O)c2cc(C)cc(C)c2)CC3)c1`, the AC50 was 25.7 µM.
The value for `Cc1cccc(S(=O)(=O)N2CCc3nc(-c4cnn(C)c4)nc(NC4CC4)c3C2)c1` was 19 µM.
The figure for `Oc1cccc(-c2nccn2-c2cccc(-c3ccn[nH]3)c2)c1` is 22.7 µM; for `CC(C)Cc1ccc(S(=O)(=O)N2CCC3(CC2)NCCN=C3NCc2ccccc2)cc1` it is 14.4 µM.
With `COc1ccc(-c2nc(N3CCC(N4CCCCC4)CC3)c3ccccc3n2)cc1`, the AC50 is 10.6 µM.
The value for `Cc1cccc(S(=O)(=O)N2C[C@H]3[C@@H](c4ccccc42)[C@@H](CO)N3C(=O)c2ccccc2)c1` was > 39 µM (inactive).
The figure for `COc1ccccc1C1CN(Cc2cccc(O)c2)Cc2ccccc2O1` (stereo not drawn) is 34.4 µM and 27.5 µM; for `Cc1ccc(-c2coc(-c3ccc(NC(=O)Nc4ccc(Br)cc4)cc3)n2)cc1` it is > 39 µM (inactive); for `CC(C)(C)OC(=O)Nc1cc(-c2cn[nH]c2C2CCCN(C(=O)OC(C)(C)C)C2)ccn1` (stereo not drawn) it is 10.1 µM.
The figure for `CN(C[C@H]1N[C@@H](CO)[C@H]1c1ccc(-c2ccc(F)cc2)cc1)C(=O)C1CCC1` is 16.2 µM.
For the molecule `CC(C)Cc1ccc(S(=O)(=O)N2CCC3(CC2)NCCN=C3NC2CCCC2)cc1`, the AC50 was 12.5 µM.
The value for `Cc1cc(C(=O)Nc2ccc3c(c2)C(=O)N(C)[C@H]2CC[C@@H](CC(=O)NCc4ccc(-c5ccccc5)cc4)O[C@@H]2CO3)no1` was 20.8 µM; that for `Cn1cnc(S(=O)(=O)N2CCCCN3[C@H](CO)[C@H](c4ccc(C5=CCCCC5)cc4)[C@@H]3C2)c1` was 18.4 µM and 20.2 µM.
The figure for `COc1cccc(-c2nc(C)c(-c3ccc(SCc4ccccc4)nn3)s2)c1` is 12.7 µM.
The figure for `Cc1ccc(NC(=O)c2cc(-c3cnc(-c4ccccc4)nc3)cn2CC2CC2)cn1` is 10.9 µM; for `FC(F)(F)C1CN(c2cc(-c3ccccc3)nc3ccccc23)CCO1` (stereo not drawn) it is 25.1 µM; for `CC(C)Oc1ccc(NC(=O)c2nc3c(n2C(C)C)CCN(C(=O)c2ccccc2)C3)cc1` it is 10.6 µM.
Consider `CCCCOc1ccc2c(=O)c(-c3cc(C(=O)OC)oc3C)c(C(F)(F)F)oc2c1C`, for which the AC50 is 4.38 µM and 7.67 µM.
For `COc1ccccc1N(Cc1nc(-c2ccc(C)cc2)oc1C)S(=O)(=O)c1ccccc1C`, the half-maximal activity concentration (AC50) is 15.1 µM.
The value for `O=C(NCCc1csc(-c2ccccc2)n1)C1CCN(S(=O)(=O)c2ccc(Cl)cc2)CC1` was 14.6 µM; that for `C[C@@H]1CN(Cc2ccc(F)cc2)CCN1C(=O)COc1ccc(Cl)cc1NC(N)=O` was > 39 µM (inactive).
The value for `CC(C)n1ncc(NC(=O)Cn2ccc(-c3ccc(C(F)(F)F)cc3)n2)n1` was 24.3 µM; that for `O=C(c1cccn2c(-c3ccc(F)cc3)nnc12)N1CCC(O)(c2ccc(Cl)cc2)CC1` was 25.4 µM.
